Measured values as given in ChEMBL document CHEMBL1145663, “Studies on iridoid-related compounds, II. The structure and antimicrobial activity of aglucones of galioside and gardenoside” (1983).
≈ marks a conversion by molar mass, not a printed value. Calls of active or inactive are those of the source. The calls are words filed in the database; no cut-off is given here.

Experiments:
[1] = test system: Klebsiella pneumoniae; assay: Antimicrobial activity against Klebsiella pneumoniae after 20 hrs by agar dilution method; format: functional
[2] = test system: Staphylococcus aureus; assay: Antimicrobial activity against Staphylococcus aureus after 20 hrs by agar dilution method; format: functional

| MIC [1] | MIC [2] | Compound | Activity [1] | Activity [2] |
| --- | --- | --- | --- | --- |
| – | – | COC(=O)C1=CO[C@@H](O[C@@H]2O[C@H](CO)[C@@H](O)[C@H](O)[C@H]2O)[C@H]2[C@@H]1C=C[C@]2(O)CO | Active | Active |
| 1000 µg/mL (≈ 4130 µM) | 125 µg/mL (≈ 516 µM) | COC(=O)C1=CO[C@@H](O)[C@H]2[C@@H]1C=C[C@]2(O)CO | – | – |
